Experimental data from ChEMBL document CHEMBL1153245, “A profile of the in vitro anti-tumor activity of imidazolium-based ionic liquids” (2010).

How the values were obtained:
Type in all cases: functional
[1] = test system: HCT-116; assay: Anticancer activity against human HCT116 cells after 48 hrs by sulforhodamine B assay; settings: Homo sapiens, HCT-116, 48 h; for CC50: read-out: LC50 (the source's name)
[2] = test system: M14; assay: Anticancer activity against human M14 cells after 48 hrs by sulforhodamine B assay
[3] = test system: NCI/ADR-RES; assay: Anticancer activity against human NCI/ADR-RES cells after 48 hrs by sulforhodamine B assay; settings: Homo sapiens, NCI/ADR-RES, 48 h
[4] = test system: 786-0; assay: Anticancer activity against human 786-0 cells after 48 hrs by sulforhodamine B assay; settings: Homo sapiens, 786-0, 48 h
[5] = test system: SNB-75; assay: Anticancer activity against human SNB75 cells after 48 hrs by sulforhodamine B assay; settings: for CC50: read-out: LC50 (the source's name)
[6] = test system: LOX IMVI; assay: Anticancer activity against human LOXIMVI cells after 48 hrs by sulforhodamine B assay; settings: for CC50: read-out: LC50 (the source's name)
[7] = test system: PC-3; assay: Anticancer activity against human PC3 cells after 48 hrs by sulforhodamine B assay; settings: Homo sapiens, PC-3, 48 h; for CC50: read-out: LC50 (the source's name)
[8] = test system: SW-620; assay: Anticancer activity against human SW620 cells after 48 hrs by sulforhodamine B assay
[9] = test system: OVCAR-3; assay: Anticancer activity against human OVCAR-3 cells after 48 hrs by sulforhodamine B assay; settings: Homo sapiens, OVCAR-3, 48 h
[10] = test system: HOP-92; assay: Anticancer activity against human HOP92 cells after 48 hrs by sulforhodamine B assay; settings: Homo sapiens, HOP-92, 48 h; for CC50: read-out: LC50 (the source's name)
[11] = test system: CCRF-CEM; assay: Anticancer activity against human CCRF-CEM cells after 48 hrs by sulforhodamine B assay
[12] = Anticancer activity against human Hs 578T cells after 48 hrs by sulforhodamine B assay; settings: Homo sapiens, Hs-578T, 48 h; for CC50: read-out: LC50 (the source's name)
[13] = test system: HOP-62; assay: Anticancer activity against human HOP62 cells after 48 hrs by sulforhodamine B assay; settings: Homo sapiens, HOP-62, 48 h; for CC50: read-out: LC50 (the source's name)
[14] = test system: CAKI-1; assay: Anticancer activity against human Caki1 cells after 48 hrs by sulforhodamine B assay; settings: Homo sapiens, CAKI-1, 48 h
[15] = test system: HCC 2998; assay: Anticancer activity against human HCC2998 cells after 48 hrs by sulforhodamine B assay; settings: for CC50: read-out: LC50 (the source's name)
[16] = test system: KM12; assay: Anticancer activity against human KM12 cells after 48 hrs by sulforhodamine B assay; settings: for CC50: read-out: LC50 (the source's name)
[17] = test system: IGROV-1; assay: Anticancer activity against human IGROV1 cells after 48 hrs by sulforhodamine B assay; settings: IGROV-1, 48 h
[18] = test system: OVCAR-5; assay: Anticancer activity against human OVCAR5 cells after 48 hrs by sulforhodamine B assay; settings: Homo sapiens, OVCAR-5, 48 h; for CC50: read-out: LC50 (the source's name)
[19] = test system: SF-268; assay: Anticancer activity against human SF268 cells after 48 hrs by sulforhodamine B assay; settings: Homo sapiens, SF-268, 48 h; for CC50: read-out: LC50 (the source's name)
[20] = test system: SNB-19; assay: Anticancer activity against human SNB19 cells after 48 hrs by sulforhodamine B assay; settings: for CC50: read-out: LC50 (the source's name)
[21] = test system: UO-31; assay: Anticancer activity against human UO31 cells after 48 hrs by sulforhodamine B assay; settings: Homo sapiens, UO-31, 48 h
[22] = test system: TK-10; assay: Anticancer activity against human TK10 cells after 48 hrs by sulforhodamine B assay; settings: Homo sapiens, TK-10, 48 h
[23] = test system: COLO 205; assay: Anticancer activity against human COLO205 cells after 48 hrs by sulforhodamine B assay; settings: Homo sapiens, COLO 205, 48 h; for CC50: read-out: LC50 (the source's name)
[24] = test system: BT-549; assay: Anticancer activity against human BT549 cells after 48 hrs by sulforhodamine B assay; settings: for CC50: read-out: LC50 (the source's name)
[25] = test system: T47D; assay: Anticancer activity against human T47D cells after 48 hrs by sulforhodamine B assay; settings: Homo sapiens, T47D, 48 h; for CC50: read-out: LC50 (the source's name)
[26] = test system: K562; assay: Anticancer activity against human K562 cells after 48 hrs by sulforhodamine B assay; settings: for CC50: read-out: LC50 (the source's name)
[27] = test system: U-251; assay: Anticancer activity against human U251 cells after 48 hrs by sulforhodamine B assay; settings: Homo sapiens, U-251, 48 h; for CC50: read-out: LC50 (the source's name)
[28] = test system: DU-145; assay: Anticancer activity against human DU145 cells after 48 hrs by sulforhodamine B assay; settings: for CC50: read-out: LC50 (the source's name)
[29] = test system: SN12C; assay: Anticancer activity against human SN12C cells after 48 hrs by sulforhodamine B assay; settings: Homo sapiens, SN12C, 48 h
[30] = test system: SK-MEL-28; assay: Anticancer activity against human SK-MEL-28 cells after 48 hrs by sulforhodamine B assay
[31] = test system: Malme-3M; assay: Anticancer activity against human MALME-3M cells after 48 hrs by sulforhodamine B assay
[32] = test system: SF-539; assay: Anticancer activity against human SF539 cells after 48 hrs by sulforhodamine B assay; settings: Homo sapiens, SF-539, 48 h

Structure (SMILES): CCCCCCCCCCCCCCCCCC[n+]1ccn(C)c1.[Cl-]
- GI50 [1]: 0.343 µM
- CC50 [1]: > 100 µM
- GI50 ([2]; Homo sapiens, M14, 48 h): 0.33 µM
- LC50 (50% lethal concentration) ([2]; Homo sapiens, M14, 48 h): 6.63 µM
- GI50 [3]: 1.66 µM
- LC50 [3]: > 100 µM
- GI50 [4]: 0.669 µM
- LC50 (50% lethal concentration) [4]: 6.02 µM
- GI50 [5]: 0.473 µM
- CC50 ([5]; Homo sapiens, SNB-75, 48 h): 7.41 µM
- GI50 [6]: 0.189 µM
- CC50 [6]: 1.48 µM
- GI50 [7]: 0.212 µM
- CC50 [7]: 2.85 µM
- GI50 ([8]; Homo sapiens, SW-620, 48 h): 0.446 µM
- LC50 ([8]; Homo sapiens, SW-620, 48 h): 4.72 µM
- GI50 [9]: 0.375 µM
- LC50 (50% lethal concentration) [9]: 4.01 µM
- GI50 [10]: 1.14 µM
- CC50 [10]: 6.85 µM
- GI50 ([11]; Homo sapiens, CCRF-CEM, 48 h): 0.127 µM
- LC50 ([11]; Homo sapiens, CCRF-CEM, 48 h): 0.72 µM
- GI50 [12]: 0.335 µM
- CC50 [12]: 6.31 µM
- GI50 [13]: 0.967 µM
- CC50 [13]: 7.8 µM
- GI50 [14]: 0.429 µM
- LC50 [14]: 7.45 µM
- GI50 ([15]; Homo sapiens, HCC 2998, 48 h): 0.296 µM
- CC50 ([15]; Homo sapiens, HCC 2998, 48 h): 7.77 µM
- GI50 ([16]; Homo sapiens, KM12, 48 h): 0.275 µM
- CC50 ([16]; Homo sapiens, KM12, 48 h): 2.96 µM
- GI50 [17]: 0.175 µM
- CC50 ([17]; read-out: LC50 (the source's name)): > 100 µM
- GI50 [18]: 0.819 µM
- CC50 [18]: 7.89 µM
- GI50 [19]: 0.978 µM
- CC50 [19]: 5.88 µM
- GI50 ([20]; Homo sapiens, SNB-19, 48 h): 1.22 µM
- CC50 [20]: > 100 µM
- GI50 [21]: 0.608 µM
- LC50 [21]: 5.94 µM
- GI50 [22]: 0.244 µM
- LC50 [22]: 2.77 µM
- GI50 [23]: 0.285 µM
- CC50 [23]: > 100 µM
- GI50 [24]: 0.557 µM
- CC50 ([24]; Homo sapiens, BT-549, 48 h): 5.33 µM
- GI50 [25]: 0.546 µM
- CC50 [25]: > 100 µM
- GI50 [26]: 0.385 µM
- CC50 ([26]; Homo sapiens, K562, 48 h): > 100 µM
- GI50 [27]: 0.372 µM
- CC50 [27]: 3.88 µM
- GI50 ([28]; Homo sapiens, DU-145, 48 h): 0.635 µM
- CC50 ([28]; Homo sapiens, DU-145, 48 h): 4.4 µM
- GI50 [29]: 0.679 µM
- LC50 [29]: 4.77 µM
- GI50 ([30]; Homo sapiens, SK-MEL-28, 48 h): 0.879 µM
- LC50 ([30]; Homo sapiens, SK-MEL-28, 48 h): 5.75 µM
- GI50 [31]: 0.368 µM
- LC50 (concentration killing 50% of cells) ([31]; Homo sapiens, Malme-3M, 48 h): 5.83 µM

Structure (SMILES): CCCCCCCCCCCC[n+]1ccn(C)c1.[Cl-]
- GI50 [1]: 3.59 µM
- CC50 [1]: > 100 µM
- GI50 [2]: 1.92 µM
- GI50 [3]: 55 µM
- GI50 [4]: 3.36 µM
- GI50 ([5]; Homo sapiens, SNB-75, 48 h): 2.74 µM
- CC50 ([5]; Homo sapiens, SNB-75, 48 h): 56.8 µM
- GI50 ([6]; Homo sapiens, LOX IMVI, 48 h): 1.72 µM
- CC50 ([6]; Homo sapiens, LOX IMVI, 48 h): 45.3 µM
- GI50 [7]: 1.82 µM
- CC50 [7]: > 100 µM
- GI50 [8]: 2.97 µM
- GI50 [9]: 2.84 µM
- GI50 [10]: 5.3 µM
- CC50 [10]: > 100 µM
- GI50 [32]: 2.72 µM
- GI50 [11]: 0.54 µM
- GI50 [12]: 3.13 µM
- CC50 [12]: > 100 µM
- GI50 [13]: 4.86 µM
- CC50 [13]: > 100 µM
- GI50 [14]: 1.79 µM
- GI50 [15]: 1.89 µM
- CC50 ([15]; Homo sapiens, HCC 2998, 48 h): > 100 µM
- GI50 ([16]; Homo sapiens, KM12, 48 h): 2.09 µM
- CC50 [16]: 85.8 µM
- GI50 [18]: 3.75 µM
- CC50 [18]: > 100 µM
- GI50 [19]: 4.68 µM
- CC50 [19]: > 100 µM
- GI50 ([20]; Homo sapiens, SNB-19, 48 h): 6.76 µM
- CC50 ([20]; Homo sapiens, SNB-19, 48 h): > 100 µM
- GI50 [21]: 10.2 µM
- GI50 [22]: 1.92 µM
- GI50 [23]: 2.62 µM
- CC50 [23]: > 100 µM
- GI50 ([24]; Homo sapiens, BT-549, 48 h): 1.84 µM
- CC50 ([24]; Homo sapiens, BT-549, 48 h): 50.8 µM
- GI50 [25]: 4.29 µM
- CC50 [25]: > 100 µM
- GI50 ([26]; Homo sapiens, K562, 48 h): 0.498 µM
- CC50 ([26]; Homo sapiens, K562, 48 h): > 100 µM
- GI50 [27]: 2.15 µM
- CC50 [27]: > 100 µM
- GI50 [28]: 0.688 µM
- CC50 ([28]; Homo sapiens, DU-145, 48 h): > 100 µM
- GI50 [29]: 2.76 µM
- GI50 [30]: 4.57 µM
- GI50 ([31]; Homo sapiens, Malme-3M, 48 h): 4.96 µM
